Laboratory results: the supplement of paper PMC10883282

How the values were obtained:
Experiment in all cases: relative viability vs DMSO control (72 h) (fraction); higher = more viable cells
[1] = tested on: SW872
In short: (§1)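 Densities for seeding sarcoma cell lines into 384-well plates were set to give 80–90% confluence. After 24 h, 2.5 µl of serially diluted compound from source plates of 10 mM to 0.0002 mM went in, and plates stayed 72 h at 37 °C in 5% CO2 with 0.1% DMSO vehicle and a 5 µM positive control. Percent growth from ATPLite readings, averaged over up to triplicate wells, served as relative viability, rescaled so 1 means full and 0 means none.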

[2] = tested on: VA-ES-BJ
In short: as §1

[3] = tested on: SK-LMS-1
In short: as §1

[4] = tested on: SW1353
In short: as §1

[5] = tested on: HT1080
In short: as §1

[6] = tested on: G401
In short: as §1

[7] = tested on: SK-ES-1
In short: as §1

[8] = tested on: KHOS-NP
In short: as §1

[9] = tested on: MES-SA
In short: as §1

[10] = tested on: SW684
In short: as §1

[11] = tested on: RD-ES
In short: as §1

[12] = tested on: RD
In short: as §1

Cc1[nH]c(/C=C2\C(=O)Nc3ccc(F)cc32)c(C)c1C(=O)NCCN1CCCC1 [Toceranib]
Conditions	relative viability
[1], 68 pM	1.05
[1], 0.000203 µM	1.05
[1], 0.0006 µM	1.03
[1], 0.0018 µM	0.982
[1], 0.0055 µM	0.954
[1], 0.0165 µM	0.971
[1], 0.0494 µM	0.944
[1], 0.1481 µM	0.939
[1], 0.444 µM	0.886
[1], 1.333 µM	0.65
[1], 4 µM	0.521
[2], 68 pM	1.07
[2], 0.000203 µM	1.05
[2], 0.0006 µM	1.04
[2], 0.0018 µM	1.03
[2], 0.0055 µM	1.04
[2], 0.0165 µM	1.01
[2], 0.0494 µM	0.987
[2], 0.1481 µM	1
[2], 0.444 µM	0.961
[2], 1.333 µM	0.859
[2], 4 µM	0.675
[3], 68 pM	0.939
[3], 0.000203 µM	0.944
[3], 0.0006 µM	0.972
[3], 0.0018 µM	0.968
[3], 0.0055 µM	0.941
[3], 0.0165 µM	0.946
[3], 0.0494 µM	0.906
[3], 0.1481 µM	0.921
[3], 0.444 µM	0.893
[3], 1.333 µM	0.81
[3], 4 µM	0.717
[4], 68 pM	1.07
[4], 0.000203 µM	1.02
[4], 0.0006 µM	1.02
[4], 0.0018 µM	0.987
[4], 0.0055 µM	0.994
[4], 0.0165 µM	0.973
[4], 0.0494 µM	0.964
[4], 0.1481 µM	0.928
[4], 0.444 µM	0.934
[4], 1.333 µM	0.96
[4], 4 µM	0.893
[5], 68 pM	1.09
[5], 0.000203 µM	1.06
[5], 0.0006 µM	1.116
[5], 0.0018 µM	1.07
[5], 0.0055 µM	1.076
[5], 0.0165 µM	1.04
[5], 0.0494 µM	1.09
[5], 0.1481 µM	1
[5], 0.444 µM	1.1
[5], 1.333 µM	1.14
[5], 4 µM	0.868
[6], 68 pM	0.991
[6], 0.000203 µM	0.978
[6], 0.0006 µM	0.979
[6], 0.0018 µM	0.983
[6], 0.0055 µM	0.974
[6], 0.0165 µM	0.918
[6], 0.0494 µM	0.941
[6], 0.1481 µM	0.924
[6], 0.444 µM	0.938
[6], 1.333 µM	0.912
[6], 4 µM	0.787
[7], 68 pM	1.01
[7], 0.000203 µM	1.02
[7], 0.0006 µM	1
[7], 0.0018 µM	0.995
[7], 0.0055 µM	0.996
[7], 0.0165 µM	0.98
[7], 0.0494 µM	0.972
[7], 0.1481 µM	0.913
[7], 0.444 µM	0.802
[7], 1.333 µM	0.43
[7], 4 µM	0.165
[8], 68 pM	1.09
[8], 0.000203 µM	1.106
[8], 0.0006 µM	1.0967
[8], 0.0018 µM	1.08
[8], 0.0055 µM	1.07
[8], 0.0165 µM	1.07
[8], 0.0494 µM	1.03
[8], 0.1481 µM	1.02
[8], 0.444 µM	1.02
[8], 1.333 µM	1
[8], 4 µM	0.775
[9], 68 pM	0.932
[9], 0.000203 µM	0.9214
[9], 0.0006 µM	0.926
[9], 0.0018 µM	0.899
[9], 0.0055 µM	0.915
[9], 0.0165 µM	0.919
[9], 0.0494 µM	0.9
[9], 0.1481 µM	0.919
[9], 0.444 µM	0.884
[9], 1.333 µM	0.751
[9], 4 µM	0.44
[10], 68 pM	1.1
[10], 0.000203 µM	1.178
[10], 0.0006 µM	1.13
[10], 0.0018 µM	1.13
[10], 0.0055 µM	1.14
[10], 0.0165 µM	1.1
[10], 0.0494 µM	1.15
[10], 0.1481 µM	1.14
[10], 0.444 µM	1.12
[10], 1.333 µM	0.956
[10], 4 µM	0.755
[11], 68 pM	0.976
[11], 0.000203 µM	0.948
[11], 0.0006 µM	0.964
[11], 0.0018 µM	0.943
[11], 0.0055 µM	0.9493
[11], 0.0165 µM	0.937
[11], 0.0494 µM	0.924
[11], 0.1481 µM	0.902
[11], 0.444 µM	0.821
[11], 1.333 µM	0.615
[11], 4 µM	0.176
[12], 68 pM	1.06
[12], 0.000203 µM	1.09
[12], 0.0006 µM	1.14
[12], 0.0018 µM	1.07
[12], 0.0055 µM	1.08
[12], 0.0165 µM	1.08
[12], 0.0494 µM	1.11
[12], 0.1481 µM	1.08
[12], 0.444 µM	1.08
[12], 1.333 µM	1.05
[12], 4 µM	0.786
